Data reported in the supplement of paper PMC6045584.
± gives the standard deviation of the averaged measurements.

What was measured:
CELECOXIB [1] = compound: T1, Cc1ccc(-c2cc(C(F)(F)F)nn2-c2ccc(S(N)(=O)=O)cc2)cc1 [CELECOXIB]; test: surviving fraction relative to DMSO-only wells; higher = less growth inhibition; settings: exposure time: 5 days
Method in brief: (§1)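 Viability was determined by CellTiter-Glo luminescence, expressed as surviving fraction normalised to the median of DMSO-only wells. The cells were log-phase tumour cell lines seeded at 250–500 per well in 384-well plates and, after 24 hours, exposed continuously for five days to inhibitors at 0.5, 1, 5, 10, 50, 100, 500 and 1000 nM. Three screens per line were run, keeping only lines with replicate Pearson r >0.7 and median Z' >0.3.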

CAMPTOTHECIN [2] = compound: T2, CC[C@@]1(O)C(=O)OCc2c1cc1n(c2=O)Cc2cc3ccccc3nc2-1 [CAMPTOTHECIN]; test: as above; settings: exposure time: 5 days
Method in brief: as §1

[3] = compound: CC(=O)NCC(=O)N1[C@@H]2CC[C@H]1c1ccc(Nc3ncc(C(F)(F)F)c(NC4CCC4)n3)cc12; test: as above; settings: exposure time: 5 days
Method in brief: as §1

CARBOPLATIN [4] = compound: T3, O=C(O)C1(C(=O)O)CCC1.[NH2-].[NH2-].[Pt+2] [CARBOPLATIN]; test: as above; settings: exposure time: 5 days
Method in brief: as §1

OSI-906 [5] = compound: T4, C[C@]1(O)C[C@@H](c2nc(-c3ccc4ccc(-c5ccccc5)nc4c3)c3c(N)nccn32)C1 [OSI-906]; test: as above; settings: exposure time: 5 days
Method in brief: as §1

YM155 [6] = compound: T5, COCC[n+]1c2c(n(Cc3cnccn3)c1C)C(=O)c1ccccc1C2=O [YM155]; test: as above; settings: exposure time: 5 days
Method in brief: as §1

PACLITAXEL [7] = compound: T6, CC(=O)O[C@H]1C(=O)[C@@]2(C)[C@H]([C@H](OC(=O)c3ccccc3)[C@]3(O)C[C@H](OC(=O)[C@H](O)[C@@H](NC(=O)c4ccccc4)c4ccccc4)C(C)=C1C3(C)C)[C@]1(OC(C)=O)CO[C@@H]1C[C@@H]2O [PACLITAXEL]; test: as above; settings: exposure time: 5 days
Method in brief: as §1

GEFITINIB [8] = compound: T7, COc1cc2ncnc(Nc3ccc(F)c(Cl)c3)c2cc1OCCCN1CCOCC1 [GEFITINIB]; test: as above; settings: exposure time: 5 days
Method in brief: as §1

[9] = compound: CC(=O)c1c(C)c2cnc(Nc3ccc(N4CCNCC4)cn3)nc2n(C2CCCC2)c1=O; test: as above; settings: exposure time: 5 days
Method in brief: as §1

CELECOXIB [10] = compound: T1, CELECOXIB; test: area under dose-response curve of surviving fraction (unscaled, Aref=0) (surviving fraction x log10(nM)); higher = more resistant; settings: exposure time: 5 days; dose range 0.5-1000 nM
Method in brief: (§2)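 Tumour cell lines in 384-well plates were exposed for five days to eight inhibitor concentrations from 0.5 to 1000 nM. Viability was read by CellTiter-Glo luminescence, normalised to DMSO-only wells, in three screens per line. Dose-response survival curves were fitted to surviving fractions by 3-parameter logistic regression in the drc R package. Area under the curve is the unscaled activity area (Aref = 0) over log10 dose.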

CAMPTOTHECIN [11] = compound: T2, CAMPTOTHECIN; test: as above; settings: exposure time: 5 days; dose range 0.5-1000 nM
Method in brief: as §2

[12] = compound: CC(=O)NCC(=O)N1[C@@H]2CC[C@H]1c1ccc(Nc3ncc(C(F)(F)F)c(NC4CCC4)n3)cc12; test: as above; settings: exposure time: 5 days; dose range 0.5-1000 nM
Method in brief: as §2

CARBOPLATIN [13] = compound: T3, CARBOPLATIN; test: as above; settings: exposure time: 5 days; dose range 0.5-1000 nM
Method in brief: as §2

OSI-906 [14] = compound: T4, OSI-906; test: as above; settings: exposure time: 5 days; dose range 0.5-1000 nM
Method in brief: as §2

YM155 [15] = compound: T5, YM155; test: as above; settings: exposure time: 5 days; dose range 0.5-1000 nM
Method in brief: as §2

PACLITAXEL [16] = compound: T6, PACLITAXEL; test: as above; settings: exposure time: 5 days; dose range 0.5-1000 nM
Method in brief: as §2

GEFITINIB [17] = compound: T7, GEFITINIB; test: as above; settings: exposure time: 5 days; dose range 0.5-1000 nM
Method in brief: as §2

[18] = compound: CC(=O)c1c(C)c2cnc(Nc3ccc(N4CCNCC4)cn3)nc2n(C2CCCC2)c1=O; test: as above; settings: exposure time: 5 days; dose range 0.5-1000 nM
Method in brief: as §2

Test System: HSSYII SYNOVIAL
- surviving fraction (CELECOXIB [1]; 0.5 nM): 1.04 ± 0.019
- surviving fraction (CELECOXIB [1]; 1 nM): 1.01 ± 0.014
- surviving fraction (CELECOXIB [1]; 5 nM): 0.979 ± 0.07
- surviving fraction (CELECOXIB [1]; 10 nM): 1.08 ± 0.028
- surviving fraction (CELECOXIB [1]; 50 nM): 1.02 ± 0.046
- surviving fraction (CELECOXIB [1]; 100 nM): 1.039 ± 0.0068
- surviving fraction (CELECOXIB [1]; 500 nM): 1.01 ± 0.066
- surviving fraction (CELECOXIB [1]; 1000 nM): 1.04 ± 0.036
- surviving fraction (CAMPTOTHECIN [2]; 0.5 nM): 0.187 ± 0.025
- surviving fraction (CAMPTOTHECIN [2]; 1 nM): 0.686 ± 0.035
- surviving fraction (CAMPTOTHECIN [2]; 5 nM): 0.213 ± 0.011
- surviving fraction (CAMPTOTHECIN [2]; 10 nM): 0.12 ± 0.0066
- surviving fraction (CAMPTOTHECIN [2]; 50 nM): 0.0273 ± 0.0023
- surviving fraction (CAMPTOTHECIN [2]; 100 nM): 0.0507 ± 0.0042
- surviving fraction (CAMPTOTHECIN [2]; 500 nM): 0.0363 ± 0.001
- surviving fraction (CAMPTOTHECIN [2]; 1000 nM): 0.0383 ± 0.0038
- surviving fraction ([3]; 0.5 nM): 0.921 ± 0.035
- surviving fraction ([3]; 1 nM): 0.8998 ± 0.0079
- surviving fraction ([3]; 5 nM): 0.886 ± 0.044
- surviving fraction ([3]; 10 nM): 0.851 ± 0.05
- surviving fraction ([3]; 50 nM): 0.438 ± 0.017
- surviving fraction ([3]; 100 nM): 0.222 ± 0.015
- surviving fraction ([3]; 500 nM): 0.177 ± 0.015
- surviving fraction ([3]; 1000 nM): 0.185 ± 0.0066
- surviving fraction (CARBOPLATIN [4]; 0.5 nM): 0.965 ± 0.035
- surviving fraction (CARBOPLATIN [4]; 1 nM): 0.957 ± 0.015
- surviving fraction (CARBOPLATIN [4]; 5 nM): 0.975 ± 0.023
- surviving fraction (CARBOPLATIN [4]; 10 nM): 0.963 ± 0.089
- surviving fraction (CARBOPLATIN [4]; 50 nM): 0.965 ± 0.05
- surviving fraction (CARBOPLATIN [4]; 100 nM): 0.97 ± 0.016
- surviving fraction (CARBOPLATIN [4]; 500 nM): 0.959 ± 0.037
- surviving fraction (CARBOPLATIN [4]; 1000 nM): 0.958 ± 0.089
- surviving fraction (OSI-906 [5]; 0.5 nM): 0.8472 ± 0.0081
- surviving fraction (OSI-906 [5]; 1 nM): 0.85 ± 0.027
- surviving fraction (OSI-906 [5]; 5 nM): 0.9002 ± 0.0069
- surviving fraction (OSI-906 [5]; 10 nM): 0.798 ± 0.021
- surviving fraction (OSI-906 [5]; 50 nM): 0.814 ± 0.026
- surviving fraction (OSI-906 [5]; 100 nM): 0.746 ± 0.04
- surviving fraction (OSI-906 [5]; 500 nM): 0.673 ± 0.03
- surviving fraction (OSI-906 [5]; 1000 nM): 0.656 ± 0.026
- surviving fraction (YM155 [6]; 0.5 nM): 0.876 ± 0.058
- surviving fraction (YM155 [6]; 1 nM): 0.843 ± 0.014
- surviving fraction (YM155 [6]; 5 nM): 0.199 ± 0.0066
- surviving fraction (YM155 [6]; 10 nM): 0.0977 ± 0.011
- surviving fraction (YM155 [6]; 50 nM): 0.0352 ± 0.004
- surviving fraction (YM155 [6]; 100 nM): 0.027 ± 0.0035
- surviving fraction (YM155 [6]; 500 nM): 0.017 ± 0.0013
- surviving fraction (YM155 [6]; 1000 nM): 0.0215 ± 0.0017
- surviving fraction (PACLITAXEL [7]; 0.5 nM): 0.836 ± 0.0087
- surviving fraction (PACLITAXEL [7]; 1 nM): 0.558 ± 0.021
- surviving fraction (PACLITAXEL [7]; 5 nM): 0.0827 ± 0.011
- surviving fraction (PACLITAXEL [7]; 10 nM): 0.0622 ± 0.0043
- surviving fraction (PACLITAXEL [7]; 50 nM): 0.0613 ± 0.0025
- surviving fraction (PACLITAXEL [7]; 100 nM): 0.0585 ± 0.0041
- surviving fraction (PACLITAXEL [7]; 500 nM): 0.049 ± 0.0033
- surviving fraction (PACLITAXEL [7]; 1000 nM): 0.0538 ± 0.0021
- surviving fraction (GEFITINIB [8]; 0.5 nM): 1.04 ± 0.026
- surviving fraction (GEFITINIB [8]; 1 nM): 0.9723 ± 0.0083
- surviving fraction (GEFITINIB [8]; 5 nM): 1.05 ± 0.022
- surviving fraction (GEFITINIB [8]; 10 nM): 1.03 ± 0.047
- surviving fraction (GEFITINIB [8]; 50 nM): 1.03 ± 0.017
- surviving fraction (GEFITINIB [8]; 100 nM): 1.03 ± 0.067
- surviving fraction (GEFITINIB [8]; 500 nM): 0.995 ± 0.051
- surviving fraction (GEFITINIB [8]; 1000 nM): 0.98 ± 0.065
- surviving fraction ([9]; 0.5 nM): 0.986 ± 0.015
- surviving fraction ([9]; 1 nM): 0.935 ± 0.028
- surviving fraction ([9]; 5 nM): 0.975 ± 0.035
- surviving fraction ([9]; 10 nM): 1 ± 0.019
- surviving fraction ([9]; 50 nM): 0.892 ± 0.045
- surviving fraction ([9]; 100 nM): 0.914 ± 0.07
- surviving fraction ([9]; 500 nM): 0.811 ± 0.013
- surviving fraction ([9]; 1000 nM): 0.737 ± 0.045
- area under dose-response curve (CELECOXIB [10]): 3.39
- area under dose-response curve (CAMPTOTHECIN [11]): 0.531
- area under dose-response curve [12]: 1.97
- area under dose-response curve (CARBOPLATIN [13]): 3.19
- area under dose-response curve (OSI-906 [14]): 2.6
- area under dose-response curve (YM155 [15]): 0.716
- area under dose-response curve (PACLITAXEL [16]): 0.524
- area under dose-response curve (GEFITINIB [17]): 3.35
- area under dose-response curve [18]: 3.04
